Assay results taken from a melting point compilation (Tetko et al.).

Details: a range is the spread between reports

melting point	Compound
161 to 162 °C	O=C(O)Cc1sc(-c2ccccc2)nc1-c1ccc(Cl)cc1
155 to 157 °C	O=C(O)c1cccc(Br)c1
250 to 254 °C	Nc1cccc2c1C(=O)c1ccccc1C2=O
39.1 to 40 °C	CCCCCCCCCCCCCCCCCC(=O)OC
173 to 178 °C	NC(=O)c1ccc(Cl)cc1
164 to 166 °C	O=C1OC(=O)C2C3C=CC(C3)C12 (stereo unspecified)
58 to 59 °C	OCCc1c[nH]c2ccccc12
195 to 196 °C	O=C(O)C1CSCN1 (stereo unspecified)
152 to 153 °C	Cc1cc(C)nc(N)n1
43 to 44 °C	CCOc1ccccc1OCC
57.5 to 59 °C	O=C(O)CCCCc1ccccc1
258 to 260 °C	CC(=O)Nc1nnc(S(N)(=O)=O)s1
209 to 212 °C	O=c1c2ccccc2sc2ccccc12
151 to 152 °C	O=S(=O)(Cc1ccccc1)Cc1ccccc1
108 to 110 °C	O=[N+]([O-])c1cccc2cnccc12
-81 to -80 °C	CCCCCCS
141 to 142 °C	O=Cc1ccc(O)c([N+](=O)[O-])c1
182 to 183 °C	NC(=O)c1ccc(N)cc1
114 to 117 °C	CC(=O)c1ccccc1C(=O)O
231 to 236 °C	O=C(O)c1cc(I)cc(I)c1O
-138 °C	CCC1CCCC1
-64 to -60 °C	Cc1ccnc(C)c1
1 to 4 °C	COC(=O)OC
167 to 168 °C	Nc1cc(Cl)c(O)c(Cl)c1
106 to 107 °C	c1ccc2c(c1)CCc1ccccc1N2

melting point	Compound
-49.2 to -49 °C	C1=CCC=CC1
200 to 201 °C	COc1cc(Cc2cnc(N)nc2N)cc(OC)c1OC
54.5 to 56.5 °C	CC(C)(C)c1ccc(O)c(C(C)(C)C)c1
8 to 8.2 °C	CN1CCN(C)C1=O
16 to 18.5 °C	Nc1cccc(Br)c1
-28 to -27 °C	CCCOc1ccccc1
54 to 56.5 °C	Clc1cncc(Cl)n1
49 to 51.5 °C	Cc1ccc(C(C)C)c(O)c1
49 to 49.5 °C	c1ccc(CSCc2ccccc2)cc1
78.5 to 81 °C	COc1ccccc1OCC(O)CO (stereo unspecified)
109 to 111 °C	O=C(O)c1ccccc1C(F)(F)F
-70 to -69.8 °C	CC1(C)CCCC1
142 to 143 °C	NC(=O)c1ccccc1Cl
55 to 59 °C	Cc1cc(Cl)nc2ccccc12
32.6 to 33 °C	CCCCS(=O)CCCC
56 to 59 °C	CC(=O)CC(=O)c1ccccc1
60 to 63.5 °C	OC1(c2ccccc2)CCCCC1
-2 to -1.8 °C	Oc1cccc(C(F)(F)F)c1
89 to 90 °C	COc1cc(O)ccc1O
70 to 72.5 °C	CC1=CC(=O)C=C(C)C1=O
-42 to -41.7 °C	Fc1ccc(C(F)(F)F)cc1
117 to 118 °C	c1cnc2c(c1)ccc1cccnc12
42 to 44 °C	CC(C)[C@@H]1CC[C@@H](C)C[C@H]1O
94 to 97.5 °C	O=C=Nc1ccc(N=C=O)cc1
40 to 41 °C	COc1ccc(C(C)=O)c(OC)c1

melting point	Compound
130 to 132 °C	Ic1ccc(I)cc1
-78 to -76.9 °C	CCCC(C)=O
2 to 2.55 °C	NC=O
21.5 to 25 °C	C[C@H](O)CN
-0.5 to 1 °C	CC(C)(C)S
196 to 197 °C	O=Cc1c[nH]c2ccccc12
73 to 76 °C	CC(=O)c1ccc(Cl)c(Cl)c1
50 to 52.5 °C	CC1(C)CC(C)(c2ccccc2)c2ccccc21 (stereo unspecified)
124 to 127 °C	COc1ccc(N)c([N+](=O)[O-])c1
119 to 120 °C	O=C1CCC(=O)O1
-23.4 °C	c1cc[nH]c1
-75 to -74 °C	CC(C)=C(C)C
22.5 to 27 °C	C#CCCCCCCCCCCCCCCCC
-43.5 to -43 °C	CCc1ccc(Br)cc1
-18 to -17 °C	NC1CCCCC1
170 to 173 °C	O=C(NNc1ccccc1)NNc1ccccc1
244 to 247 °C	O=C(O)/C=C/c1ccccc1[N+](=O)[O-]
-160 to -155 °C	FC(F)F
124 °C	CCOC(=O)n1ccn(C)c1=S
-23 to -19 °C	CCCCCCN
103 to 106 °C	O=C1CCCC(=O)C1
-21 to -20 °C	CCOC(=O)CCC(=O)OCC
51 to 52 °C	COc1cc(Cl)ccc1N
-110 to -109 °C	CC(C)C(C)C(C)C
83 to 86 °C	c1ccc(-c2ccc3ccccc3n2)cc1

melting point	Compound
30.5 to 32 °C	O=[N+]([O-])c1cccc(CO)c1
226 to 228 °C	O=C(O)c1cc(Br)cc(Br)c1O
15 to 20 °C	COc1ccc(OC)c(C)c1
54 to 56.5 °C	COc1cccc(OC)c1O
48 to 53 °C	N#CCc1ccc(I)cc1
18 to 23 °C	O=C(O)CCCCCc1ccccc1
214 to 219 °C	O=C1NC(=O)c2c1cccc2[N+](=O)[O-]
220 to 222 °C	O=C(O)c1cc2ccccc2cc1O
9 to 10 °C	Cc1ccc(C)c(Br)c1
94 to 96.5 °C	O=[N+]([O-])c1ccc(CO)cc1
-102 °C	CCSSCC
-70 to -69.5 °C	CCCCCCCCl
115 °C	COC(=O)c1ccc(I)cc1
5.7 to 6 °C	CCCCCCCCCCCCCCCC(C)C
29 to 31 °C	COc1ccccc1-c1ccccc1
61 to 62 °C	c1ccc(Nc2cccc3ccccc23)cc1
43 to 47 °C	CCc1ccc(O)cc1
61 to 61.5 °C	c1ccc(-c2ccncc2)nc1
-10 to -9.8 °C	CCC(C)(C)C(C)(C)C
162 to 167 °C	O=C(O)c1ccc2c(c1)C(=O)OC2=O
216 to 220 °C	Nc1ccncc1N
-41.2 to -41 °C	SCCS
-69 to -68.5 °C	C=Cc1ccccc1C

Compound	melting point
COC(=O)c1ccccc1C(=O)OC	2 to 5.5 °C
C#CC(C)(C)O	2.6 to 3 °C
COS(=O)(=O)OC	-32 to -27 °C
Clc1ccc(C(c2ccc(Cl)cc2)C(Cl)Cl)cc1	109 to 110 °C
O=C(O)c1cc(Cl)ccc1Cl	152 to 156 °C
N#Cc1nn(-c2c(Cl)cc(C(F)(F)F)cc2Cl)c(N)c1S(=O)C(F)(F)F (stereo unspecified)	199 to 200 °C
Cc1cc([N+](=O)[O-])ccc1Cl	42.5 to 43 °C
CCCCBr	-112 °C
C=CCN	-88.2 to -88 °C
O=C(O)CCCCCCCCCCCCCCCO	98 to 99 °C
CC(=O)/C=C/c1ccccc1	40 to 42 °C
Cc1ccc(N)cc1Cl	23 to 26 °C
OC(c1ccc(Cl)cc1)(c1ccc(Cl)cc1)C(Cl)(Cl)Cl	77.5 to 78.5 °C
Cc1cc(O)ccc1Cl	66 to 67 °C
COP(=S)(OC)Oc1ccc([N+](=O)[O-])cc1	35.5 to 36 °C
Cc1cc(Cl)ccc1OC(C)C(=O)O (stereo unspecified)	94 to 95 °C
FC(F)(F)F	-184 °C
ClC1=C(Cl)C2(Cl)C3C(Cl)C(Cl)CC3C1(Cl)C2(Cl)Cl (stereo unspecified)	104 to 106 °C
CN(C)c1ccc(Cc2ccc(N(C)C)cc2)cc1	87 to 91.5 °C
c1ccc(OP(Oc2ccccc2)Oc2ccccc2)cc1	23 to 25 °C
N#CC(Cl)(Cl)Cl	-44 to -42 °C
NCc1cccnc1	-21.1 to -21 °C
Nc1cccc2ccccc12	48 to 49.2 °C
